# Where “and” joins values, the source holds several entries; their conditions need not be identical. Equal values may be shown once. Positions of bridges follow the written chain, without caps; N, C: chain ends. Non-standard residues stand in square brackets, D forms with d. Residues, ends and D or L forms follow the SMILES beside them. *: point of attachment. Octanoyl = CCCCCCCC(=O)*; Dab = NCC[C@H](N)C(=O)O; Dap = NC[C@H](N)C(=O)O
# Experiments:
# A. baumannii AB027 = assay: Time-kill kinetics assay; settings: monotherapy at 8 µg/mL, LB, 37°C, up to 24 h
# Procedure: Bactericidal and bacteriostatic activity correspond to a ≥ 3 log10 and a < 3 log10 decrease in bacterial load after 24 h relative to the starting inoculum, respectively ([39]).
# The time- and concentration-dependent killing of the antibiotic/compound combinations was assessed using the time-kill kinetics assay by following a previously described protocol ([27][–][29]). Bacterial culture grown overnight was diluted in phosphate-buffered saline (PBS) to 0.5 McFarland turbidity and was further diluted 1:50 in LB. Bacterial cultures treated with varying concentrations of antibiotic alone, compound alone, or the combination of antibiotic and compound were incubated in a shaking incubator at 250 rpm and at 37°C. At designated time points, 100 µL aliquots were taken from the culture tubes, serially diluted in PBS, and plated on LB agar plates. The bacterial colonies were then counted after incubation of the plates for 18 h at 37°C.
# E. coli = assay: Checkerboard assay (antibiotic potentiation); format: cell-based, Escherichia coli; settings: compound 1 alone
# P. aeruginosa 259-96916 = assay: Time-kill kinetics assay; settings: monotherapy at 8 µg/mL, LB, 37°C, up to 24 h
# E. cloacae = assay: Checkerboard assay (antibiotic potentiation); format: cell-based, Enterobacter cloacae; settings: E. cloacae 121887 (colistin-resistant); compound 1 alone
# A. baumannii = assay: Checkerboard assay (antibiotic potentiation); format: cell-based, Acinetobacter baumannii; settings: compound 1 alone
# P. aeruginosa = assay: Checkerboard assay (antibiotic potentiation); format: cell-based, Pseudomonas aeruginosa; settings: for MICcompound 1: compound 1 alone
# K. pneumoniae = assay: Checkerboard assay (antibiotic potentiation); format: cell-based, Klebsiella pneumoniae; settings: compound 1 alone
# E. faecalis ATCC 29212 = assay: Checkerboard assay (rifampicin potentiation); format: cell-based; settings: compound 1 alone
# Procedure: (§1) The interaction between the compounds and the antibiotics was evaluated using the fractional inhibitory concentration (FIC) index. FIC indices of ≤0.5 is synergistic, 0.5 < × ≤ 4 is additive, whereas >4 is antagonistic ([34]). […] .
# (§2) The bacterial isolates were acquired from ATCC or the Canadian Ward Surveillance (CANWARD) study ([56]). CANWARD isolates were collected from infected patients admitted to participating medical centers across Canada.
# (§3) The antibiotic and compounds were serially diluted 2-fold in CAMHB along the x- and y-axis, respectively, on a 96-well plate that was subsequently incubated with equal volumes of bacterial inoculum overnight at 37°C. Wells containing only media were used as negative controls, and wells containing only bacteria were used as positive controls. Synergy was measured by the FIC index, which is the summation of the individual FICs of the antibiotic and the compound. The FIC is calculated by dividing the MIC of one agent in the presence of another by the MIC of the agent alone. Turbidity was confirmed with a Molecular Devices (United States) EMax Plus microplate reader at a wavelength of 590 nm. The FBS studies were conducted by following a previously published protocol ([29], [50]). The FBS was inactivated by heating at 56°C for 30 min with constant swirling.
# [1] = test system: Methicillin-resistant S. aureus ATCC 22592; assay: Checkerboard assay (rifampicin potentiation); format: cell-based; settings: MRSA ATCC 22592; compound 1 alone
# Procedure: as §1, §2, §3
# E. faecium ATCC 27270 = assay: Checkerboard assay (rifampicin potentiation); format: cell-based; settings: compound 1 alone
# Procedure: as §1, §2, §3
smiles,measurement,setting,value
CCCCCCCC(=O)N[C@@H](CN)C(=O)N[C@H](C(=O)N[C@@H](CN)C(=O)N[C@H]1CCNC(=O)[C@H]([C@@H](C)O)NC(=O)[C@H](CN)NC(=O)[C@H](CN)NC(=O)[C@H](CC(C)C)NC(=O)[C@@H](Cc2ccccc2)NC(=O)[C@H](CN)NC1=O)[C@@H](C)O [Compound 1] (Octanoyl-[Dap]T[Dap][Dab][Dap][dF]L[Dap][Dap]T; lactam 4-C),time-kill outcome,A. baumannii AB027,growth curves similar to that of untreated bacteria
same,MICcompound 1,E. coli; E. coli 94393 (colistin-resistant),>128 µg/mL
same,MICcompound 1,E. coli; E. coli 94474 (colistin-resistant),>128 µg/mL
same,time-kill outcome,P. aeruginosa 259-96916,"decrease in growth up to 4 h, with regrowth occurring at 8 h"
same,MICcompound 1,E. cloacae,>128 µg/mL
same,MICcompound 1,A. baumannii; A. baumannii 92247 (colistin-resistant),>128 µg/mL
same,MICcompound 1,A. baumannii; A. baumannii 110193,32 µg/mL and 16 µg/mL
same,MICcompound 1,A. baumannii; A. baumannii AB027,>128 µg/mL
same,MICcompound 1,"A. baumannii; A. baumannii ATCC 17978, 0% FBS",16 µg/mL
same,MICcompound 1,"A. baumannii; A. baumannii ATCC 17978, 10% FBS (heat-inactivated)",>128 µg/mL
same,MICcompound 1,"A. baumannii; A. baumannii ATCC 17978, 25% FBS",>128 µg/mL
same,MICcompound 1,"A. baumannii; A. baumannii ATCC 17978, 50% FBS",>128 µg/mL
same,MICcompound 1,"A. baumannii; A. baumannii ATCC 17978, [Mg2+] 25 mM",>128 µg/mL
same,MICcompound 1,"A. baumannii; A. baumannii ATCC 17978, [Mg2+] 0.4–0.5 mM (CAMHB)",16 µg/mL
same,MICcompound 1,P. aeruginosa; P. aeruginosa 259-96916,>128 µg/mL
same,MICcompound 1,P. aeruginosa; P. aeruginosa 262-101856,>128 µg/mL
same,MICcompound 1,P. aeruginosa; P. aeruginosa 264-105354,>128 µg/mL
same,MICcompound 1,P. aeruginosa; P. aeruginosa 101243 (colistin-resistant),>128 µg/mL
same,MICcompound 1,P. aeruginosa; P. aeruginosa 114228 (colistin-resistant),>128 µg/mL
same,MICcompound 1,"P. aeruginosa; P. aeruginosa PAO1, 0% FBS",>128 µg/mL
same,MICcompound 1,"P. aeruginosa; P. aeruginosa PAO1, 10% FBS (heat-inactivated)",>128 µg/mL
same,MICcompound 1,"P. aeruginosa; P. aeruginosa PAO1, 25% FBS",>128 µg/mL
same,MICcompound 1,"P. aeruginosa; P. aeruginosa PAO1, 50% FBS",>128 µg/mL
same,MICcompound 1,"P. aeruginosa; P. aeruginosa PAO1, [Mg2+] 25 mM",>128 µg/mL
same,MICcompound 1,"P. aeruginosa; P. aeruginosa PAO1, [Mg2+] 0.4–0.5 mM (CAMHB)",>128 µg/mL
same,MICcompound,"P. aeruginosa; P. aeruginosa PAO1, compound alone",>128 µg/mL
same,MICcompound 1,K. pneumoniae; K. pneumoniae 113250 (colistin-resistant),>128 µg/mL
same,MICcompound 1,K. pneumoniae; K. pneumoniae 116381,>128 µg/mL
same,MICcompound 1,E. faecalis ATCC 29212,>128 µg/mL
same,MICcompound 1,[1],>128 µg/mL
same,MICcompound 1,E. faecium ATCC 27270,>128 µg/mL

# — publication PMC12587545, “Noncytotoxic polymyxin derivatives enhance antibiotic action against multidrug-resistant Gram-negative bacteria” (Antimicrobial Agents and Chemotherapy, 2025)
